The source of these data is patent publication US7666906B2, “β-Benzyloxyaspartate derivatives with amino group on benzene ring” (Suntory Holdings Limited, priority 2001, dated 2010).

A word on the IC50: it is the concentration that inhibits the measured activity by half. Higher therefore signals lower potency.

The target of one assay is T1, human EAAT2 (Homo sapiens, UniProt P43004).
T1 construct: expressed in transfected cells
The assay can be described thus: inhibition of [14C]glutamate uptake by human EAAT2 expressed on MDCK or COS-1 cells. In kind it is cell-based. As to conditions: 1 μM L-[14C]glutamate, 12 minutes. The text has this: (§1) Well-known methods can be used to determine inhibitory activity of the compounds of the invention on glutamate transporters. For example, the compounds of the invention have been confirmed to inhibit uptake of ^14C-labeled glutamate into cells by human EAAT2 and EAAT3 stably expressed on MDCK (Madin-Darby Canine Kidney) cells or transiently expressed on COS-1 cells.
(§2) A known method (Shimamoto, K. et al., Mol. Pharmacol. 53, 195-201, 1998; Bioorg. Med. Chem. Lett. 10, 2407-2410, 2000) was used to measure the inhibitory effect on uptake of [^14C]glutamate by human EAAT2 and EAAT3 stably expressed on MDCK (Madin-Darby Canine Kidney) cells or transiently expressed on COS-1 cells. The glutamate uptake activity was measured by adding 1 μM of L-[^14C]glutamate and a prescribed concentration of sample, incubating for 12 minutes and then lysating the cells, and using a liquid scintillator to determine the radioactivity uptake. The uptake was expressed as a percentage, with 100% being the uptake with no compound (buffer alone) and 0% being the uptake with a sodium-free solution.

The target in the next assay is T2, human EAAT3 (Homo sapiens, UniProt P43005).
T2 construct: expressed in transfected cells
T2 sequence (P43005 1-524): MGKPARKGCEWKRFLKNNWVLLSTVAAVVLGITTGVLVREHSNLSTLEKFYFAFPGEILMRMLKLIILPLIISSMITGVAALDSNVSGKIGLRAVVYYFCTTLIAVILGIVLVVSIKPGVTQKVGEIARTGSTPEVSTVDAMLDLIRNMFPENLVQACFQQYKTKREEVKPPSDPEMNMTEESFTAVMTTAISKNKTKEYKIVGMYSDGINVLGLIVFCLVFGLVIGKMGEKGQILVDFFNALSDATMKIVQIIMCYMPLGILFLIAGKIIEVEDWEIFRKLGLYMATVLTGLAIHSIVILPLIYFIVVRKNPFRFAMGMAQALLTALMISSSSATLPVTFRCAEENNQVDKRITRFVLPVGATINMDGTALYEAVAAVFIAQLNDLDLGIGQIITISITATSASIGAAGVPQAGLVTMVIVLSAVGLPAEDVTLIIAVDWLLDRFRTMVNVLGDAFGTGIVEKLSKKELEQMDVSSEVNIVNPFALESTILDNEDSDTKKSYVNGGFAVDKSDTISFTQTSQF
The assay can be described thus: inhibition of [14C]glutamate uptake by human EAAT3 expressed on MDCK or COS-1 cells. In kind it is cell-based. As to conditions: 1 μM L-[14C]glutamate, 12 minutes.
Text: as §1, §2

[1] abbreviates: COS-1 cells (transiently expressed), marked *.

T1 sequence (P43004 whole entry): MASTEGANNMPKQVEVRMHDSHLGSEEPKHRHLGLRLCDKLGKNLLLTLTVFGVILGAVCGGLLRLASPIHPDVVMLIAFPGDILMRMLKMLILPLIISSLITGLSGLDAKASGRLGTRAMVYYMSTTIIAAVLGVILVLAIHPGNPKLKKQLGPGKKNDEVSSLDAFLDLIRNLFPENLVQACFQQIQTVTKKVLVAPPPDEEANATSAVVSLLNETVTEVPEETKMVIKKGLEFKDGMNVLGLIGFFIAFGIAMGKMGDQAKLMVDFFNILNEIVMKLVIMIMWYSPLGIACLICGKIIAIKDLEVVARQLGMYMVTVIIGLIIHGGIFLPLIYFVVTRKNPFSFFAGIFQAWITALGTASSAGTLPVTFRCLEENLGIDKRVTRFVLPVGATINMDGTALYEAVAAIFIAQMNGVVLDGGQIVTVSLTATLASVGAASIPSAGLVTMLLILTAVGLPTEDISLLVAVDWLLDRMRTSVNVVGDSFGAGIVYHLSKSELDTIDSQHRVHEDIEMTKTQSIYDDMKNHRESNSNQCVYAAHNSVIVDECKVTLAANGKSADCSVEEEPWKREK

Consider `NCCCCCOc1ccc(C(=O)Nc2cccc(CO[C@H](C(=O)O)[C@H](N)C(=O)O)c2)cc1` [A-PenO-BzA-TBOA, (2S,3S)-3-[3-(N-(4-(5-aminopentyloxy)benzoyl)amino)benzyloxy]aspartic acid], for which the 50% inhibitory concentration (IC50) was found to be 7300 ± 1100 nM against human EAAT2 (stably expressed on MDCK cells) and 2200 ± 200 nM against human EAAT3 (stably expressed on MDCK cells).
Turning to `Nc1cccc(CO[C@H](C(=O)O)[C@H](N)C(=O)O)c1` [A-TBOA, (2S,3S)-3-(3-aminobenzyloxy)aspartic acid], the concentration for half-maximal inhibition (IC50) on human EAAT2 (stably expressed on MDCK cells) turned out to be 2100 ± 100 nM; against human EAAT3 (stably expressed on MDCK cells), 7900 ± 760 nM.
Consider `NCCC(=O)Nc1cccc(CO[C@H](C(=O)O)[C@H](N)C(=O)O)c1` [AA-TBOA, (2S,3S)-3-[3-(3-aminopropionylamino)benzyloxy]aspartic acid], for which the IC50 against human EAAT2 (stably expressed on MDCK cells) and against human EAAT3 (stably expressed on MDCK cells) was 13000 ± 1100 nM in each case.
As for `N[C@H](C(=O)O)[C@H](OCc1cccc(NC(=O)CCNC(=O)CCCC[C@@H]2SC[C@@H]3NC(=O)N[C@@H]32)c1)C(=O)O` [Bio-AA-TBOA, (2S,3S)-3-[3-(3-N-biotinylaminopropionylamino)benzyloxy]aspartic acid], the results for the IC50 against human EAAT2 (stably expressed on MDCK cells) and on human EAAT3 (stably expressed on MDCK cells) were 6300 ± 390 nM and 10000 ± 930 nM, respectively.
Consider `N[C@H](C(=O)O)[C@H](OCc1cccc(NC(=O)c2ccc(OCCCCCNC(=O)CCCC[C@@H]3SC[C@@H]4NC(=O)N[C@@H]43)cc2)c1)C(=O)O` [BioA-PenO-BzA-TBOA, (2S,3S)-3-[3-(N-(4-(5-biotynylaminopentyloxy)benzoyl)amino)benzyloxy]aspartic acid], for which the values for the IC50 against human EAAT2 (stably expressed on MDCK cells) and against human EAAT3 (stably expressed on MDCK cells) were 2200 ± 520 nM and 1100 ± 60 nM, respectively.
`N[C@H](C(=O)O)[C@H](OCc1cccc(NC(=O)CCCC[C@@H]2SC[C@@H]3NC(=O)N[C@@H]32)c1)C(=O)O` [BioA-TBOA, (2S,3S)-3-[3-(N-biotinylamino)benzyloxy]aspartic acid]: the figures for the concentration for half-maximal inhibition (IC50) against human EAAT2 (stably expressed on MDCK cells) and against human EAAT3 (stably expressed on MDCK cells) were 38000 ± 13000 nM and 25000 ± 2400 nM, respectively.
Taken in the same sequence, the figures for `N[C@H](C(=O)O)[C@H](OCc1cccc(NC(=O)c2ccccc2)c1)C(=O)O` [BzA-TBOA, (2S,3S)-3-[3-(N-benzoylamino)benzyloxy]aspartic acid] were 55 ± 5 nM and 726 ± 98 nM.
Taken in the same sequence, the figures for `N[C@H](C(=O)O)[C@H](OCc1cccc(NC(=O)c2ccc(C(F)(F)F)cc2)c1)C(=O)O` [CF3-BzA-TBOA, (2S,3S)-3-[3-[N-(4-trifluoromethylbenzoyl)amino]benzyloxy]aspartic acid] were 1.9 ± 0.1 nM and 28 ± 1.8 nM.
For the compound `N[C@H](C(=O)O)[C@H](OCc1cccc(NC(=O)C2CCCCC2)c1)C(=O)O` [CHexcA-TBOA, (2S,3S)-3-[3-(N-cyclohexylcarbonylamino)benzyloxy]aspartic acid], the IC50 against human EAAT2 (stably expressed on MDCK cells) was determined as 244 ± 12 nM; at human EAAT3 (stably expressed on MDCK cells), 288 ± 8 nM.
Regarding `N#Cc1ccc(C(=O)Nc2cccc(CO[C@H](C(=O)O)[C@H](N)C(=O)O)c2)cc1` [CN-BzA-TBOA, (2S,3S)-3-[3-[N-(4-cyanobenzoyl)amino]benzyloxy]aspartic acid], the values for the IC50 at human EAAT2 (stably expressed on MDCK cells) and against human EAAT3 (stably expressed on MDCK cells) were 36 ± 2.9 nM and 1400 ± 99 nM, respectively.
As to `COc1ccc(C(=O)Nc2cccc(CO[C@H](C(=O)O)[C@H](N)C(=O)O)c2)cc1OC` [DiMeO-BzA-TBOA, (2S,3S)-3-[3-[N-(3,4-dimethoxybenzoyl)amino]benzyloxy]aspartic acid], the results for the half-inhibitory concentration (IC50) at human EAAT2 (stably expressed on MDCK cells) and against human EAAT3 (stably expressed on MDCK cells) were 49 ± 3.8 nM and 917 ± 30 nM, respectively.
Taken in the same sequence, the figures for `N[C@H](C(=O)O)[C@H](OCc1cccc(NC(=O)c2ccc(F)cc2)c1)C(=O)O` [F-BzA-TBOA, (2S,3S)-3-[3-[N-(4-fluorobenzoyl)amino]benzyloxy]aspartic acid] were 22 ± 2.7 nM and 473 ± 13 nM.
As for `N[C@H](C(=O)O)[C@H](OCc1cccc(NC(=O)c2ccc([N+](=O)[O-])cc2)c1)C(=O)O` [NO2-BzA-TBOA, (2S,3S)-3-[3-[N-(4-nitrobenzoyl)amino]benzyloxy]aspartic acid], the IC50 is 14 ± 1.4 nM on human EAAT2 (stably expressed on MDCK cells) and 278 ± 32 nM against human EAAT3 (stably expressed on MDCK cells).
For `N[C@H](C(=O)O)[C@H](OCc1cccc(NC(=O)c2ccc(OC(F)(F)F)cc2)c1)C(=O)O` [OCF3-BzA-TBOA, (2S,3S)-3-[3-[N-(4-trifluoromethoxybenzoyl)amino]benzyloxy]aspartic acid], the 50% inhibitory concentration (IC50) at human EAAT2 (stably expressed on MDCK cells) amounted to 7 ± 0.5 nM; at human EAAT3 (stably expressed on MDCK cells), 128 ± 12 nM.
Taken in the same sequence, the figures for `CCCCCCOc1ccc(C(=O)Nc2cccc(CO[C@H](C(=O)O)[C@H](N)C(=O)O)c2)cc1` [OHex-BzA-TBOA, (2S,3S)-3-[3-[N-(4-n-hexyloxybenzoyl)amino]benzyloxy]aspartic acid] were 1.2 ± 0.04 nM and 18 ± 1.6 nM.
For `N[C@H](C(=O)O)[C@H](OCc1cccc(NC(=O)c2ccc(-c3ccccc3)cc2)c1)C(=O)O` [Ph-BzA-TBOA, (2S,3S)-3-[3-[N-(4-phenylbenzoyl)amino]benzyloxy]aspartic acid] the same measures were 21 ± 2.2 nM and 34 ± 19 nM.
As for `N[C@H](C(=O)O)[C@H](OCc1cccc(NC(=O)Cc2ccccc2)c1)C(=O)O` [PhAcA-TBOA, (2S,3S)-3-[3-(N-phenylacetylamino)benzyloxy]aspartic acid], the 50% inhibitory concentration (IC50) turned out to be 143 ± 7.9 nM at human EAAT2 (stably expressed on MDCK cells) and 529 ± 32 nM on human EAAT3 (stably expressed on MDCK cells).
As to `CC(C)(C)C(=O)Nc1cccc(CO[C@H](C(=O)O)[C@H](N)C(=O)O)c1` [Piv-A-TBOA, (2S,3S)-3-[3-(N-pivaroylamino)benzyloxy]aspartic acid], the IC50 is 1000 ± 130 nM against human EAAT2 (stably expressed on MDCK cells) and 4100 ± 670 nM against human EAAT3 (stably expressed on MDCK cells).
Turning to `CCC(=O)Nc1cccc(CO[C@H](C(=O)O)[C@H](N)C(=O)O)c1` [Pr-A-TBOA, (2S,3S)-3-[3-(N-propionylamino)benzyloxy]aspartic acid], the IC50 amounted to 2000 ± 210 nM at human EAAT2 (stably expressed on MDCK cells) and 7900 ± 460 nM at human EAAT3 (stably expressed on MDCK cells).
For `CCC(=O)NCCC(=O)Nc1cccc(COC(C(=O)O)C(N)C(=O)O)c1` [Pr-AA-TBOA, (2S,3S)-3-[3-(3-N-propionylaminopropionylamino)benzyloxy]aspartic acid] the same measures were 6000 ± 1400 nM and 7600 ± 450 nM.
For `N[C@H](C(=O)O)[C@H](OCc1ccccc1)C(=O)O` [TBOA, L-threo-β-benzyloxyaspartate, reference compound] the same measures were 1400 ± 120 nM and 1300 ± 110 nM.
Take `CC(C)(C)c1ccc(C(=O)Nc2cccc(CO[C@H](C(=O)O)[C@H](N)C(=O)O)c2)cc1` [TBu-BzA-TBOA, (2S,3S)-3-[3-[N-(4-tert-butylbenzoyl)amino]benzyloxy]aspartic acid]: the concentration for half-maximal inhibition (IC50) was 25 ± 0.5 nM at human EAAT2 (stably expressed on MDCK cells) and 182 ± 11 nM against human EAAT3 (stably expressed on MDCK cells).
For `COc1cccc(C(=O)Nc2cccc(CO[C@H](C(=O)O)[C@H](N)C(=O)O)c2)c1` [m-MeO-BzA-TBOA, (2S,3S)-3-[3-[N-(3-methoxybenzoyl)amino]benzyloxy]aspartic acid], the concentration for half-maximal inhibition (IC50) was 37 ± 2.5 nM on human EAAT2 (stably expressed on MDCK cells) and 356 ± 12 nM on human EAAT3 (stably expressed on MDCK cells).
Consider `COc1ccccc1C(=O)Nc1cccc(CO[C@H](C(=O)O)[C@H](N)C(=O)O)c1` [o-MeO-BzA-TBOA, (2S,3S)-3-[3-[N-(2-methoxybenzoyl)amino]benzyloxy]aspartic acid], for which the concentration for half-maximal inhibition (IC50) on human EAAT2 (stably expressed on MDCK cells) is 145 ± 2.2 nM; against human EAAT3 (stably expressed on MDCK cells), 1000 ± 42 nM.
For `COc1ccc(C(=O)Nc2cccc(CO[C@H](C(=O)O)[C@H](N)C(=O)O)c2)cc1` [p-MeO-BzA-TBOA, (2S,3S)-3-[3-[N-(4-methoxybenzoyl)amino]benzyloxy]aspartic acid] the same measures were 12 ± 0.5 nM and 266 ± 20 nM.
`CCC(=O)Nc1ccc(CO[C@H](C(=O)O)[C@H](N)C(=O)O)cc1` [p-Pr-A-TBOA, (2S,3S)-3-[4-(N-propionylamino)benzyloxy]aspartic acid]: the half-inhibitory concentration (IC50) on human EAAT2 (setting [1]) was determined as 111000 ± 25000 nM; against human EAAT3 (setting [1]), 295000 ± 118000 nM.
